Where two headings read alike, the source gives them in different places.
Tests used:
[1] = target: T1, β-secretase (BACE) (Homo sapiens, UniProt P56817); test: in vitro BACE FS1 % Inhibition Assay (Example 13); assay type: biochemical; conditions: FS1 substrate, pH 5; for % Inhibition (Example 13) @ 0.3 μM / inhibition at 0.3 µM: 0.3 μM compound; for % Inhibition (Example 13) @ 1 μM / inhibition at 1 µM: 1 μM compound; for % Inhibition (Example 13) @ 3 μM / inhibition at 3 µM: 3 μM compound; for inhibition at 0.3 µM: read-out: % Inhibition (Example 13) @ 0.3 μM; for inhibition at 1 µM: read-out: % Inhibition (Example 13) @ 1 μM; for inhibition at 3 µM: read-out: % Inhibition (Example 13) @ 3 μM
T1 construct: purchased Panvera
T1 sequence (P56817 46-501): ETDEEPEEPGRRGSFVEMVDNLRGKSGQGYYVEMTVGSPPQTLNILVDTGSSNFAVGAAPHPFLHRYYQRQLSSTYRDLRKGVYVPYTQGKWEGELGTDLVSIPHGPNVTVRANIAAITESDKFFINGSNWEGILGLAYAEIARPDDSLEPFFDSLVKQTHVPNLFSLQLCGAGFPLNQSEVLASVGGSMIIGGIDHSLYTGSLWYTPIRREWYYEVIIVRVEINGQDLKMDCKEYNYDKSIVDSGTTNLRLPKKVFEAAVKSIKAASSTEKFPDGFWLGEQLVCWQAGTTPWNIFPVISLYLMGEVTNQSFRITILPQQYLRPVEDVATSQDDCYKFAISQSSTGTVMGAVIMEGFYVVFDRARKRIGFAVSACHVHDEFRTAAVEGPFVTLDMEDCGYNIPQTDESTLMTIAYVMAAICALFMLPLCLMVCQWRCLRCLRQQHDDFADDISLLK
Protocol: (§1) The following assay buffers were prepared and used in this assay: (1) enzyme assay buffer (0.05 M sodium acetate, pH5, 0.1% PEG8000 (w/v)), (2) substrate assay buffer (0.05 M sodium acetate, pH5), and (3) compound vehicle (30% DMSO in 50 mM HEPES, pH 7.4).
(§2) The FS1-substrate stock solution was prepared in DMSO as a 10 mg/mL solution. The FS1-substrate working solution was prepared by diluting the 10 mg/mL stock solution with substrate assay buffer to a final concentration of 300 μg/mL. The α-secretase (BACE) working solution was prepared by diluting a 0.83 mg/mL BACE stock solution with enzyme assay buffer to a final concentration of 4 μg/mL.
Test compounds were dissolved in DMSO to 10 mM.
(§3) The screening procedure for this assay was as follows: 15 μL of BACE working solution was pipetted into each well of a 96-well plate. To each well was then pipetted 2 μL of test compound at the selected concentration. Test compound and BACE were then mixed with a pipettor and incubated for 20 min at room temperature. To each well was then added 10 µL of the FS1 substrate working solution. The plates were then incubated for 1 hour at room temperature.
The procedure for the blank (negative control) was as follows. 15 μL of assay buffer was pipetted into each well to be used as a blank control. To each well was then added 2 μL of vehicle and 10 μL of FS1-substrate working solution. The plates were then incubated for 1 hour at room temperature.
(§4) The procedure for the positive control was as follows: 15 μL of BACE working solution was pipetted into each well to be used as a positive control. To each well was then pipetted 2 μL of vehicle. Vehicle and BACE were then mixed with a pipettor and incubated for 20 min at room temperature. To each well was then added 10 μL of the FS1 substrate working solution. The plates were then incubated for 1 hour at room temperature.
For test compounds, % inhibition was determined at each concentration as follows: […]

[2] = target: T1, β-secretase (BACE); test: in vitro BACE Assay, Ki (Example 14); assay type: biochemical
Protocol: as §1
as §2, with “β-secretase” for “α-secretase”
Test compounds were dissolved in DMSO at 10 mM.
as §3, with “The” for “The screening”, “μL” for “µL”, “solution.” for “solution. The plates were then incubated for 1 hour at room temperature.”
as §4, with “solution.” for “solution. The plates were then incubated for 1 hour at room temperature.”
For test compounds, Ki inhibition was determined as follows: For each compound concentration and positive control, rate of cleavage of substrate (Vi, where i=compound concentration in μM) was determined as Δ Fluorescence/Δ time (min). Cleavage rates (Vi) were plotted as a function of inhibitor concentration in μM [I]. The Ki was then determined by fitting the following equation to the graph of [I] vs. Vi Y=aVmax/(50+24*(1+X/Ki)),

[3] = read-out: (Example 14) Ki, FS1 substrate 50 μM, Km 24 μM, pH 5

| % Inhibition (Example 13) @ 0.3 μM [1] | % Inhibition (Example 13) @ 1 μM [1] | % Inhibition (Example 13) @ 3 μM [1] | inhibition at 0.3 µM [1] | inhibition at 1 µM [1] | inhibition at 3 µM [1] | SMILES | other results |
| --- | --- | --- | --- | --- | --- | --- | --- |
| 9% | 7% | 29% | – | – | – | CC(C)[C@@H]1CC(=O)N(C2CCCCC2)CCCc2cccc(c2)Oc2ccc3c(c2)CN1C(N)=N3 [Compound 3] | – |
| – | – | – | 100% | 115% | 120% | NC1=Nc2ccc3cc2CN1CCCCC(=O)N(C1CCCCC1)CCCc1cccc(c1)O3 [Compound 4] | Ki [2]: 44 nM |
| 3% | −6% | 43% | – | – | – | CC(C)[C@H]1CC(=O)N(C2CCCCC2)CCCc2cccc(c2)Oc2ccc3c(c2)CN1C(N)=N3 [Compound 5] | – |
| – | – | – | – | – | – | NC1=Nc2ccc3cc2CN1CCCNC(=O)CCc1cccc(c1)O3 [Compound 7] | % Inhibition (Example 13) @ 0.3 μM ([1]; 0.3 µM): 39%; % Inhibition (Example 13) @ 1 μM ([1]; 1 µM): 36%; % Inhibition (Example 13) @ 3 μM ([1]; 3 µM): 37% |
| – | – | – | – | – | – | NC1=Nc2ccc3cc2CN1CCCNC(=O)CCc1cccc(c1)O3 [Compound 9] | % Inhibition (Example 13) @ 0.3 μM ([1]; 0.3 µM): −26%; % Inhibition (Example 13) @ 1 μM ([1]; 1 µM): −21%; % Inhibition (Example 13) @ 3 μM ([1]; 3 µM): 1% |
| −9% | 5% | 7% | – | – | – | NC1=Nc2ccc3cc2CN1CCN(C(=O)C1CCCCC1)CCCc1cccc(c1)O3 [Compound 10] | – |
| – | – | – | -12% | 23% | 65% | NC1=Nc2ccc3cc2CN1CCNC(=O)CCC/C=C/c1ccccc1-3 [Compound 11] | – |
| −18% | −0.4% | 11% | – | – | – | NC1=Nc2ccc3cc2CN1CCCNC(=O)Cc1cccc(c1)O3 [Compound 12] | – |
| −36% | −31% | 10% | – | – | – | NC1=Nc2ccc3cc2CN1CCN(C1CCCCC1)C(=O)CCc1cccc(c1)O3 [Compound 15] | – |
| 39% | 37% | 61% | – | – | – | NC1=Nc2ccc3cc2CN1[C@@H](C1CCCCC1)CNC(=O)CCc1cccc(c1)O3 [Compound 16] | – |
| – | – | – | 139% | 145% | 151% | NC1=Nc2cc(F)c3cc2CN1[C@H](C1CCCCC1)CCC(=O)N(C1CCCCC1)CCc1cccc(c1)O3 [Compound 17] | Ki [2]: 7.6 nM |
| – | – | – | 95% | 107% | 115% | COc1cc2c3cc1Oc1cccc(c1)CCN(C1CCCCC1)C(=O)CC[C@@H](C1CCCCC1)N(C3)C(N)=N2 [Compound 18] | – |
| – | – | – | 35% | 55% | 93% | NC1=Nc2ccc3cc2CN1[C@@H](C1CCCCC1)CCCN(C1CCCCC1)CCCc1cccc(c1)O3 [Compound 19] | Ki [2]: 400 nM |
| – | – | – | – | – | – | CC(C)[C@@H]1CCC(=O)N(C2CCOCC2)CCc2cccc(c2)Oc2ccc3c(c2)CN1C(N)=N3 [Compound 20] | Ki [2, 3]: 22 nM |
| 54% | 88% | 110% | – | – | – | NC1=Nc2ccc3cc2CN1[C@H](C1CCOCC1)CCC(=O)NCCc1cccc(c1)O3 [Compound 21] | Ki [2, 3]: 100 nM |

Source: patent US7932261B2, “Macrocycle derivatives useful as inhibitors of β-secretase (BACE)” (Janssen Pharmaceutica NV, priority 2006, dated 2011)
